Laboratory results taken from the supplement of paper PMC5321775.
± gives the standard deviation of the averaged measurements or the uncertainty stated by the source.

Legend:
[1] = tested on: Caenorhabditis briggsae AF16; test: mean adult lifespan of treated plate (days); higher = longer lifespan; conditions: exposure: chronic from day 1 of adulthood
Description: (§1)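 Dose-response lifespan assays in three C. briggsae strains (AF16, HK104, JU1348), run per plate (35-40 animals) on NGM with live OP50-1 and 51 uM FUdR at 20 C. Compound was added to the plate surface and worms were exposed from the first day of adulthood.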

[2] = tested on: Caenorhabditis briggsae HK104; test: as above; conditions: exposure: chronic from day 1 of adulthood
Description: as §1

[3] = tested on: Caenorhabditis briggsae JU1348; test: as above; conditions: exposure: chronic from day 1 of adulthood
Description: as §1

[4] = tested on: Caenorhabditis briggsae AF16; test: mean adult lifespan of treated cohort (days); higher = longer lifespan; conditions: exposure: chronic from day 1 of adulthood, single dose per compound (concentration not stated in sheet)
Description: (§2)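 Caenorhabditis lifespan assay (CITP). Synchronised hermaphrodites were moved on the first day of adulthood onto 35 mm NGM plates with live E. coli OP50-1 and 51 uM FUdR, with the compound spread on the plate. Worms were kept at 20 C and scored for survival.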

[5] = tested on: Caenorhabditis briggsae HK104; test: as above; conditions: exposure: chronic from day 1 of adulthood, single dose per compound (concentration not stated in sheet)
Description: as §2

[6] = tested on: Caenorhabditis briggsae JU1348; test: as above; conditions: exposure: chronic from day 1 of adulthood, single dose per compound (concentration not stated in sheet)
Description: as §2

[7] = tested on: Caenorhabditis elegans JU775; test: as above; conditions: exposure: chronic from day 1 of adulthood, single dose per compound (concentration not stated in sheet)
Description: as §2

[8] = tested on: Caenorhabditis elegans MY16; test: as above; conditions: exposure: chronic from day 1 of adulthood, single dose per compound (concentration not stated in sheet)
Description: as §2

[9] = tested on: Caenorhabditis elegans N2; test: as above; conditions: exposure: chronic from day 1 of adulthood, single dose per compound (concentration not stated in sheet)
Description: as §2

[10] = tested on: Caenorhabditis briggsae AF16; test: Kaplan-Meier median lifespan of treated plate (days); higher = longer lifespan; conditions: exposure: chronic from day 1 of adulthood
Description: as §1

[11] = tested on: Caenorhabditis briggsae HK104; test: as above; conditions: exposure: chronic from day 1 of adulthood
Description: as §1

[12] = tested on: Caenorhabditis briggsae JU1348; test: as above; conditions: exposure: chronic from day 1 of adulthood
Description: as §1

[13] = tested on: Caenorhabditis briggsae AF16; test: Kaplan-Meier median lifespan of treated cohort (days); higher = longer lifespan; conditions: exposure: chronic from day 1 of adulthood, single dose per compound (concentration not stated in sheet)
Description: as §2

[14] = tested on: Caenorhabditis briggsae HK104; test: as above; conditions: exposure: chronic from day 1 of adulthood, single dose per compound (concentration not stated in sheet)
Description: as §2

[15] = tested on: Caenorhabditis briggsae JU1348; test: as above; conditions: exposure: chronic from day 1 of adulthood, single dose per compound (concentration not stated in sheet)
Description: as §2

[16] = tested on: Caenorhabditis elegans JU775; test: as above; conditions: exposure: chronic from day 1 of adulthood, single dose per compound (concentration not stated in sheet)
Description: as §2

[17] = tested on: Caenorhabditis elegans MY16; test: as above; conditions: exposure: chronic from day 1 of adulthood, single dose per compound (concentration not stated in sheet)
Description: as §2

[18] = tested on: Caenorhabditis elegans N2; test: as above; conditions: exposure: chronic from day 1 of adulthood, single dose per compound (concentration not stated in sheet)
Description: as §2

`CCCOC(=O)c1cc(O)c(O)c(O)c1` [propyl gallate] was tested, and the “mean adult lifespan of treated plate” value ([1]; 20 µM) was 26.6 ± 1.5, the “mean adult lifespan of treated plate” value ([1]; 100 µM) was 25 ± 1.5 and the “mean adult lifespan of treated plate” value ([1]; 200 µM) was 27.2 ± 1.1. For the same molecule, the “mean adult lifespan of treated plate” value ([1]; 400 µM) was 25.2 ± 1.4, the “mean adult lifespan of treated plate” value ([1]; 4000 µM) was 18 ± 1.1 and the “mean adult lifespan of treated plate” value ([2]; 20 µM) was 33.5 ± 1.6. The “mean adult lifespan of treated plate” value ([2]; 100 µM) was 35 ± 1.6, the “mean adult lifespan of treated plate” value ([2]; 200 µM) was 33.9 ± 1.3 and the “mean adult lifespan of treated plate” value ([2]; 400 µM) was 35.1 ± 1.4. For the same molecule, the “mean adult lifespan of treated plate” value ([2]; 4000 µM) was 21.9 ± 1.4, the “mean adult lifespan of treated plate” value ([3]; 20 µM) was 23.8 ± 1.1 and the “mean adult lifespan of treated plate” value ([3]; 100 µM) was 26 ± 1.4. For the same molecule, the “mean adult lifespan of treated plate” value ([3]; 200 µM) was 22.8 ± 1.1, the “mean adult lifespan of treated plate” value ([3]; 400 µM) was 24.7 ± 1.2 and the “mean adult lifespan of treated plate” value ([3]; 4000 µM) was 19.5 ± 0.94. The “mean adult lifespan of treated cohort” value [4] was 24.8 ± 0.89, the “mean adult lifespan of treated cohort” value [5] was 33.4 ± 1 and the “mean adult lifespan of treated cohort” value [6] was 24.5 ± 0.75. The “mean adult lifespan of treated cohort” value [7] was 21.5 ± 0.74, the “mean adult lifespan of treated cohort” value [8] was 18.3 ± 0.57 and the “mean adult lifespan of treated cohort” value [9] was 19 ± 0.4. For the same molecule, the Kaplan-Meier median lifespan ([10]; 20 µM) was 26.4 ± 2.5, the Kaplan-Meier median lifespan ([10]; 100 µM) was 26.6 ± 2.9 and the Kaplan-Meier median lifespan ([10]; 200 µM) was 28.3 ± 0.58. It also gave a Kaplan-Meier median lifespan ([10]; 400 µM) of 26.6 ± 2.4, a Kaplan-Meier median lifespan ([10]; 4000 µM) of 17.6 ± 4.5 and a Kaplan-Meier median lifespan ([11]; 20 µM) of 35.4 ± 5.3. The Kaplan-Meier median lifespan ([11]; 100 µM) was 36.8 ± 3.5, the Kaplan-Meier median lifespan ([11]; 200 µM) was 35 and the Kaplan-Meier median lifespan ([11]; 400 µM) was 35.5 ± 3.6. The Kaplan-Meier median lifespan ([11]; 4000 µM) was 22.2 ± 6.4, the Kaplan-Meier median lifespan ([12]; 20 µM) was 24.6 ± 4.2 and the Kaplan-Meier median lifespan ([12]; 100 µM) was 27.3 ± 4.3. It also gave a Kaplan-Meier median lifespan ([12]; 200 µM) of 21, a Kaplan-Meier median lifespan ([12]; 400 µM) of 24.1 ± 4.8 and a Kaplan-Meier median lifespan ([12]; 4000 µM) of 19.4 ± 2.1. For the same molecule, the Kaplan-Meier median lifespan [13] was 24.7 ± 2, the Kaplan-Meier median lifespan [14] was 35.5 ± 3 and the Kaplan-Meier median lifespan [15] was 24.7 ± 4. The Kaplan-Meier median lifespan [16] was 22.3 ± 2, the Kaplan-Meier median lifespan [17] was 18.3 ± 3.9 and the Kaplan-Meier median lifespan [18] was 18.3 ± 0.82.
For `Oc1ccc(/C=C/c2cc(O)cc(O)c2)cc1` [resveratrol], the “mean adult lifespan of treated plate” value ([1]; 10 µM) was 26.1 ± 1.4, the “mean adult lifespan of treated plate” value ([1]; 50 µM) was 26.9 ± 1.2 and the “mean adult lifespan of treated plate” value ([1]; 200 µM) was 26.9 ± 1.6. For the same molecule, the “mean adult lifespan of treated plate” value ([1]; 1000 µM) was 27.6 ± 1.3, the “mean adult lifespan of treated plate” value ([2]; 10 µM) was 35.9 ± 1.3 and the “mean adult lifespan of treated plate” value ([2]; 50 µM) was 33 ± 1.3. The “mean adult lifespan of treated plate” value ([2]; 200 µM) was 35.5 ± 1.5, the “mean adult lifespan of treated plate” value ([2]; 1000 µM) was 34.7 ± 1.3 and the “mean adult lifespan of treated plate” value ([3]; 10 µM) was 25.9 ± 1.5. The “mean adult lifespan of treated plate” value ([3]; 50 µM) was 25.7 ± 1.1, the “mean adult lifespan of treated plate” value ([3]; 200 µM) was 22.9 ± 1.1 and the “mean adult lifespan of treated plate” value ([3]; 1000 µM) was 23.6 ± 1. For the same molecule, the “mean adult lifespan of treated cohort” value [4] was 24.6 ± 0.91, the “mean adult lifespan of treated cohort” value [5] was 33.5 ± 1 and the “mean adult lifespan of treated cohort” value [6] was 25.5 ± 0.79. The “mean adult lifespan of treated cohort” value [7] was 22.9 ± 0.69, the “mean adult lifespan of treated cohort” value [8] was 18.3 ± 0.59 and the “mean adult lifespan of treated cohort” value [9] was 19.2 ± 0.46. The Kaplan-Meier median lifespan ([10]; 10 µM) was 26.1 ± 1.4, the Kaplan-Meier median lifespan ([10]; 50 µM) was 27.8 ± 2.7 and the Kaplan-Meier median lifespan ([10]; 200 µM) was 26.3 ± 1.8. For the same molecule, the Kaplan-Meier median lifespan ([10]; 1000 µM) was 28.1 ± 2.2, the Kaplan-Meier median lifespan ([11]; 10 µM) was 36.8 ± 3.5 and the Kaplan-Meier median lifespan ([11]; 50 µM) was 36.2 ± 3.3. For the same molecule, the Kaplan-Meier median lifespan ([11]; 200 µM) was 36.9 ± 3, the Kaplan-Meier median lifespan ([11]; 1000 µM) was 35.6 ± 3.6 and the Kaplan-Meier median lifespan ([12]; 10 µM) was 25.7 ± 4.7. For the same molecule, the Kaplan-Meier median lifespan ([12]; 50 µM) was 25.7 ± 4.7, the Kaplan-Meier median lifespan ([12]; 200 µM) was 23.2 ± 3.4 and the Kaplan-Meier median lifespan ([12]; 1000 µM) was 22.6 ± 2.6. It also gave a Kaplan-Meier median lifespan [13] of 24.2 ± 1.5, a Kaplan-Meier median lifespan [14] of 35.8 ± 3.4 and a Kaplan-Meier median lifespan [15] of 25.5 ± 1.6. The Kaplan-Meier median lifespan [16] was 24.2 ± 1.7, the Kaplan-Meier median lifespan [17] was 18.3 ± 1.5 and the Kaplan-Meier median lifespan [18] was 19.2 ± 1.2.
